{"source": "paper PMC12010937", "about": "“Evaluation of FXR Activity in Pollutants Identified in Sewage Sludge and Subsequent in Vitro and in Vivo Characterization of Metabolic Effects of Triphenyl Phosphate” (Environmental Health Perspectives, 2025)", "key": {"[1]": {"target": "T1, human FXR-LBD (6His-FXR-LBD) (Homo sapiens, UniProt Q96RI1)", "T1 construct": "human FXR (residues 243–472) was expressed and purified as an amino-terminal 6His fusion protein; made in house; host or cells: E. coli BL21(DE3)", "T1 sequence (Q96RI1 243-472 isoform Q96RI1-2)": "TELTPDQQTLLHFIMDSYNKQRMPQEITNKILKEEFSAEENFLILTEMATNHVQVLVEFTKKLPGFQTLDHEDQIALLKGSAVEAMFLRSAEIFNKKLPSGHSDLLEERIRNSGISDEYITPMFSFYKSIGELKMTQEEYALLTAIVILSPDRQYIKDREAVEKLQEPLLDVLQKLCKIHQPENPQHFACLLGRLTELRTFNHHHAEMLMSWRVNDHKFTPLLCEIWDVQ", "assay": "FXR protein affinity pull-down assay", "type": "binding", "details": "100 nM OCA", "excerpt": "The ligand binding domain (LBD) of human FXR (residues 243–472) was expressed and purified as an amino-terminal 6His fusion protein based on the prokaryotic expression vector pACYCDuet-1, and the pACYCDuet-1-6His-FXR-LBD plasmid was synthesized by the Beijing Genomics Institute (BGI). In detail, the gene encoding human FXR-LBD was first synthesized by BGI and then subcloned into the pACYCDuet-1 vector predigested with BamHI/NotI (SE0054/SE0594; SibEnzyme) according to the manufacturer’s protocol. In brief, the vector was predigested at 37°C for 15 min, subsequently mixed with the synthesized FXR-LBD cDNA and seamless assembly mix (BGI), and incubated at 52°C for 30 min. Then, the new plasmid construct pACYCDuet-1-6His-FXR-LBD was transformed into Escherichia coli Top10 Competent Cells (BGI) by heat shock transformation (the mixture was incubated on ice for 30 min, then incubated at 42°C for 90 s and transferred to ice for 3 min). Finally, the pACYCDuet-1-6His-FXR-LBD plasmid were extracted from the positive clone, confirmed by sequencing and provided by BGI. The pACYCDuet-1-6His-FXR-LBD plasmid was transformed into E. coli BL21(DE3) cells (Tiangen Biotech) by heat shock transformation (the mixture was incubated on ice for 30 min, then incubated at 42°C for 90 s, and then transferred to ice for 3 min). The transformed E. coli was grown in lysogeny broth (LB) medium at 37°C to OD600 about 0.8–1.0, and then protein expression was induced with 0.5 mM isopropyl β-d-1-thiogalactopyranoside (IPTG) at 25°C for 5 h. The cells were harvested by centrifugation at 4°C and 5,000×g for 10 min, and the harvested cells were subjected to ultrasonic disruption (5 s on, 7 s off, 150 cycles) using an ultrasonic homogenizer (Ningbo Scientz Biotechnology) and centrifugation at 4°C and 12,000×g for 1 h. […] Finally, the purity of the 6His-FXR-LBD protein was detected by sodium dodecyl sulfate-polyacrylamide gel electrophoresis (SDS-PAGE) with 4%–15% Bis-tris SDS-PAGE gel (Sangon Biotech), which was stained with Coomassie brilliant blue R250 Protein Stain Reagent (Coolaber). […]"}, "[2]": {"target": "T2, human FXR-LBD (GST-FXR-LBD) (Homo sapiens, UniProt Q96RI1)", "T2 construct": "the human FXR-LBD (residues 234–472) was expressed as a GST fusion protein GST-FXR-LBD; made in house; host or cells: E. coli BL21(DE3)", "T2 sequence (Q96RI1 234-472 isoform Q96RI1-2)": "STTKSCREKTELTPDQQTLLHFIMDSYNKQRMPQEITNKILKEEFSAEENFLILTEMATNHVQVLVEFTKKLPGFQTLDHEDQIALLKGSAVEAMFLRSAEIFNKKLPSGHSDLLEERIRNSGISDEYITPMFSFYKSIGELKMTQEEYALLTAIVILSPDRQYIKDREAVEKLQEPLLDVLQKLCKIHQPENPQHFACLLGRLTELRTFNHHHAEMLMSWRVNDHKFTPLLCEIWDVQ", "assay": "HTRF coactivator recruitment assay, agonist mode", "type": "biochemical", "details": "for Ratio of 665nm/615nm: FXR agonists (Figure S3A), replicates"}, "[3]": {"target": "T2, human FXR-LBD (GST-FXR-LBD)", "assay": "HTRF coactivator recruitment assay, antagonist mode (in the presence of 50 μM CDCA)", "type": "biochemical", "details": "for Ratio of 665nm/615nm: FXR antagonists (Figure S3B); for activity at 1.95 µM: 1.95 μM compound + 50 μM CDCA; for activity at 3.9 µM: 3.90 μM compound + 50 μM CDCA; for activity at 31.25 µM: 31.25 μM compound + 50 μM CDCA; for activity at 62.5 µM: 62.50 μM compound + 50 μM CDCA; for IC50: read-out: IC50, inhibition of CDCA-induced coactivator recruitment to FXR"}, "[4]": {"system": "FXR", "set-up": "method as in PMID 12166927", "details": "read-out: EC50 (FXR agonist); cited from earlier work"}, "[5]": {"target": "T3, FXR (pCDNA3.1-hFXR, FXRE-luc) (Homo sapiens, UniProt Q96RI1)", "T3 construct": "host or cells: HEK 293T", "T3 sequence (Q96RI1 1-486)": "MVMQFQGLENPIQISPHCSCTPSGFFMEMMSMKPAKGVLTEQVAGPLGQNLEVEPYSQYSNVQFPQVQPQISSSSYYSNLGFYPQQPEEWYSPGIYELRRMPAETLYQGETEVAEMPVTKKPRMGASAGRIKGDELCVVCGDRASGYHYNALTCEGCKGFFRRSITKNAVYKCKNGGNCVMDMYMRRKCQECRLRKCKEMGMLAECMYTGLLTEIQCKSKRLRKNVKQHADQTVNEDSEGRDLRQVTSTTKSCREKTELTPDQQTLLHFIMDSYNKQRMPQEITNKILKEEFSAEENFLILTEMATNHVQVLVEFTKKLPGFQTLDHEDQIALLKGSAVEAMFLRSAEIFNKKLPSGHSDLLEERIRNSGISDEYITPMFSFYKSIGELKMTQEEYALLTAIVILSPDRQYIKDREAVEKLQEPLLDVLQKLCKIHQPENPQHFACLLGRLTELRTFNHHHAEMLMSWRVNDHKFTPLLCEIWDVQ", "assay": "cell-based", "type": "cell-based"}, "[6]": {"details": "replicates, read-out: Relative antagonist activity (%)"}, "[7]": {"details": "read-out: Relative antagonist activity (%)"}}, "note": "Where “and” joins values, the source holds several entries; their conditions need not be identical. Equal entries are not always repeated. Where two headings read alike, the source gives them in different places."}
{"smiles": "CC[C@H]1[C@@H](O)[C@@H]2[C@H](CC[C@]3(C)[C@@H]([C@H](C)CCC(=O)O)CC[C@@H]23)[C@@]2(C)CC[C@@H](O)C[C@@H]12", "note": "[OCA, obeticholic acid]", "values": [{"measurement": "Fold change of OCA recovery, purified vs denatured FXR-LBD", "setting": "[1]", "value": "[…]"}, {"measurement": "Recovery of OCA pulled down by control protein", "setting": "[1]; boiled inactivated (denatured) FXR-LBD as negative control, n=3", "value": "4.69% and 4.09% and 4.45%"}, {"measurement": "Recovery of OCA pulled down by the FXR-LBD protein", "setting": "[1]; purified 6His-FXR-LBD, n=3", "value": "91.28% and 89.1% and 85.93%"}, {"measurement": "Ratio of 665nm/615nm", "setting": "[2]; 0.008 μM", "value": "[…]"}, {"measurement": "Ratio of 665nm/615nm", "setting": "[2]; 0.025 μM", "value": "[…]"}, {"measurement": "Ratio of 665nm/615nm", "setting": "[2]; 0.076 μM", "value": "[…]"}, {"measurement": "Ratio of 665nm/615nm", "setting": "[2]; 0.23 μM", "value": "[…]"}, {"measurement": "Ratio of 665nm/615nm", "setting": "[2]; 0.69 μM", "value": "[…]"}, {"measurement": "Ratio of 665nm/615nm", "setting": "[2]; 2.05 μM", "value": "[…]"}, {"measurement": "Ratio of 665nm/615nm", "setting": "[2]; 18.50 μM", "value": "[…]"}, {"measurement": "Ratio of 665nm/615nm", "setting": "[2]; 56.00 μM", "value": "[…]"}, {"measurement": "Ratio of 665nm/615nm", "setting": "[2]; 167.00 μM", "value": "[…]"}, {"measurement": "Ratio of 665nm/615nm", "setting": "[3]; 0.0009 μM, replicates", "value": "[…]"}, {"measurement": "Ratio of 665nm/615nm", "setting": "[3]; 0.008 μM, replicates", "value": "[…]"}, {"measurement": "Ratio of 665nm/615nm", "setting": "[3]; 0.025 μM, replicates", "value": "[…]"}, {"measurement": "Ratio of 665nm/615nm", "setting": "[3]; 0.076 μM, replicates", "value": "[…]"}, {"measurement": "Ratio of 665nm/615nm", "setting": "[3]; 0.23 μM, replicates", "value": "[…]"}, {"measurement": "Ratio of 665nm/615nm", "setting": "[3]; 0.69 μM, replicates", "value": "[…]"}, {"measurement": "Ratio of 665nm/615nm", "setting": "[3]; 2.05 μM, replicates", "value": "[…]"}, {"measurement": "Ratio of 665nm/615nm", "setting": "[3]; 18.50 μM, replicates", "value": "[…]"}, {"measurement": "Ratio of 665nm/615nm", "setting": "[3]; 56.00 μM, replicates", "value": "[…]"}, {"measurement": "Ratio of 665nm/615nm", "setting": "[3]; 167.00 μM, replicates", "value": "[…]"}, {"measurement": "EC50", "setting": "[4]", "value": "[…]"}]}
{"smiles": "CCCCCCCC/C=C\\CCCCCCCC(=O)NCCO", "note": "[OEA, oleoyl ethanolamide]", "values": [{"measurement": "Relative activity, agonist mode", "setting": "[2]", "value": 0.00, "unit": "%"}, {"measurement": "activity at 0.98 µM", "setting": "[3]; 0.98 μM compound + 50 μM CDCA, replicates, read-out: Relative antagonist activity (%)", "value": 106, "unit": "%"}, {"measurement": "activity at 1.95 µM", "setting": "[3]; [6]", "value": 114, "unit": "%"}, {"measurement": "activity at 3.9 µM", "setting": "[3]; [6]", "value": 110, "unit": "%"}, {"measurement": "activity at 7.8 µM", "setting": "[3]; 7.80 μM compound + 50 μM CDCA, replicates, read-out: Relative antagonist activity (%)", "value": 110, "unit": "%"}, {"measurement": "activity at 31.25 µM", "setting": "[3]; [6]", "value": 102, "unit": "%"}, {"measurement": "activity at 62.5 µM", "setting": "[3]; [6]", "value": 101, "unit": "%"}, {"measurement": "activity at 125 µM", "setting": "[3]; 125.00 μM compound + 50 μM CDCA, replicates, read-out: Relative antagonist activity (%)", "value": 96.2, "unit": "%"}, {"measurement": "activity at 250 µM", "setting": "[3]; 250.00 μM compound + 50 μM CDCA, standardized to DMSO and 50 μM CDCA, replicates, read-out: Relative antagonist activity (%)", "value": 89.5, "unit": "%"}, {"measurement": "activity at […]", "setting": "[3]; […] compound + 50 μM CDCA, replicates, read-out: Relative antagonist activity (%)", "value": 104, "unit": "%"}, {"measurement": "IC50", "setting": "[3]", "value": 34, "unit": "µM"}, {"measurement": "Relative luciferase activity (%)", "setting": "[5]; 10 μM compound in the presence of 50 μM CDCA, DMSO 0%, 50 μM CDCA 100%, HEK 293T, replicates", "value": "99.0% and 100.1% and 128.0%"}, {"measurement": "Relative luciferase activity (%)", "setting": "[5]; 25 μM compound in the presence of 50 μM CDCA, DMSO 0%, 50 μM CDCA 100%, HEK 293T, replicates", "value": "96.5% and 110.1%"}, {"measurement": "activity at 25 µM", "setting": "[5]; HEK-293T, 25 μM compound in the presence of 50 μM CDCA, DMSO 0%, 50 μM CDCA 100%, HEK 293T, replicates, read-out: Relative luciferase activity (%)", "value": 110, "unit": "%"}]}
{"smiles": "Oc1cc(Cl)ccc1Oc1ccc(Cl)cc1Cl", "note": "[TLS, triclosan]", "values": [{"measurement": "Relative activity, agonist mode", "setting": "[2]", "value": "13.3% and 13.26%"}, {"measurement": "activity at 1.95 µM", "setting": "[3]; [6]", "value": 91.4, "unit": "%"}, {"measurement": "activity at 3.9 µM", "setting": "[3]; [6]", "value": 87.5, "unit": "%"}, {"measurement": "activity at 31.25 µM", "setting": "[3]; [6]", "value": 34.6, "unit": "%"}, {"measurement": "Relative activity, antagonist mode", "setting": "[3]; 50 μM compound in the presence of 50 μM CDCA, standardized against positive control DY268 (50 μM = 100%)", "value": 65.82, "unit": "%"}, {"measurement": "activity at 62.5 µM", "setting": "[3]; [6]", "value": 4.81, "unit": "%"}, {"measurement": "IC50", "setting": "[3]", "value": 28.2, "unit": "µM"}, {"measurement": "activity at 0.98 µM", "setting": "[3]; [7]", "value": 91, "unit": "%"}, {"measurement": "activity at 7.8 µM", "setting": "[3]; [7]", "value": 79.8, "unit": "%"}, {"measurement": "activity at […]", "setting": "[3]; [7]", "value": 61.3, "unit": "%"}, {"measurement": "Luciferase activity compared with DMSO control (in words)", "setting": "[5]", "value": "significantly less luciferase activity"}, {"measurement": "activity at 10 µM", "setting": "[5]; HEK-293T, read-out: Relative luciferase activity (%)", "value": 24.8, "unit": "%"}]}
